Patent publication US8492429B2, “Combination of IAP inhibitors and FLT3 inhibitors” (Novartis AG, priority 2006, dated 2013)

System: Ba/F3-FLT3-ITD cells
Assay: Proliferation of cells cultured in the presence and absence of WEHI (IL-3)
Type: cell-based, murine
Conditions: WEHI as source of IL-3

Which “Inhibition of cellular proliferation in the presence and absence of IL-3” value does the source give for `CNC(C)C(=O)NC(C(=O)N1CCC2CCN(CCc3ccccc3)CC21)C1CCCCC1` (stereo not shown) [LBW242] here?
Its value is “inhibits proliferation of Ba/F3-FLT3-ITD cells in both the absence, as well as the presence of IL-3”.
